# Reference: ChEMBL document CHEMBL1201862, “PubChem BioAssay data set” (2004)
#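 Test compounds were applied to cells in 96-well plates for 48 hours at 5 doses. Abbreviation: GI50, concentration required for 50% inhibition of growth.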 Active and inactive are the calls of the source. Rule as the data show it: active = GI50 up to about 1.1 µM and inactive = higher.
# Columns and labels:
# Test in all cases: NCI anticancer screen, dose series, 48 h
# NCI-H226 = system: NCI-H226
# IGROV-1 = system: IGROV-1
# HT-29 = system: HT-29
# NCI/ADR-RES = system: NCI/ADR-RES
# SK-MEL-28 = system: SK-MEL-28
# NCI-H460 = system: NCI-H460
# MDA-MB-435 = system: MDA-MB-435
# HCC 2998 = system: HCC 2998
# SN12C = system: SN12C
# HCT-116 = system: HCT-116
# HCT-15 = system: HCT-15
# SK-MEL-5 = system: SK-MEL-5
# NCI-H522 = system: NCI-H522
# DU-145 = system: DU-145
# 786-0 = system: 786-0
# Hs-578T = system: Hs-578T
# U-251 = system: U-251
# SF-295 = system: SF-295
# Malme-3M = system: Malme-3M
# UACC-62 = system: UACC-62
# RXF 393 = system: RXF 393
# NCI-H23 = system: NCI-H23
# MCF7 = system: MCF7
# HL-60 = system: HL-60
# SW-620 = system: SW-620
# MDA-MB-231 = system: MDA-MB-231
# CCRF-CEM = system: CCRF-CEM
# SNB-19 = system: SNB-19
# COLO 205 = system: COLO 205
# KM12 = system: KM12
# TK-10 = system: TK-10
# UACC-257 = system: UACC-257
# OVCAR-8 = system: OVCAR-8
# OVCAR-3 = system: OVCAR-3
# K562 = system: K562
# OVCAR-5 = system: OVCAR-5
# LOX IMVI = system: LOX IMVI
# HOP-92 = system: HOP-92
# HOP-62 = system: HOP-62
# SF-539 = system: SF-539
# SK-OV-3 = system: SK-OV-3
# PC-3 = system: PC-3
# ACHN = system: ACHN
# T47D = system: T47D
# MOLT-4 = system: MOLT-4
# SF-268 = system: SF-268
# SR = system: SR
# RPMI-8226 = system: RPMI-8226
# M14 = system: M14
# MDA-N = system: MDA-N
# OVCAR-4 = system: OVCAR-4
# CAKI-1 = system: CAKI-1
# EKVX = system: EKVX
# UO-31 = system: UO-31
# SK-MEL-2 = system: SK-MEL-2
# SNB-75 = system: SNB-75
# A549 = system: A549
# A498 = system: A498
compound,measurement,setting,value
O=C1Oc2cc3c(c4cccc1c24)O[C@H](c1ccccc1)[C@@H](c1ccccc1)[C@@H]3c1ccc(Cl)cc1,GI50,NCI-H226,76 µM (inactive)
same,GI50,IGROV-1,22.8 µM (inactive)
same,GI50,HT-29,> 100 µM (inactive)
same,GI50,NCI/ADR-RES,> 100 µM (inactive)
same,GI50,SK-MEL-28,> 100 µM (inactive)
same,GI50,NCI-H460,> 100 µM (inactive)
same,GI50,MDA-MB-435,76.7 µM (inactive)
same,GI50,HCC 2998,> 100 µM (inactive)
same,GI50,SN12C,79.4 µM (inactive)
same,GI50,HCT-116,31.8 µM (inactive)
same,GI50,HCT-15,> 100 µM
same,GI50,SK-MEL-5,> 100 µM (inactive)
same,GI50,NCI-H522,38 µM (inactive)
same,GI50,DU-145,> 100 µM (inactive)
same,GI50,786-0,17.6 µM (inactive)
same,GI50,Hs-578T,88.7 µM (inactive)
same,GI50,U-251,19.6 µM (inactive)
same,GI50,SF-295,42.7 µM (inactive)
same,GI50,Malme-3M,37.3 µM (inactive)
same,GI50,UACC-62,19.3 µM (inactive)
same,GI50,RXF 393,17.4 µM (inactive)
same,GI50,NCI-H23,34 µM (inactive)
same,GI50,MCF7,> 100 µM (inactive)
same,GI50,HL-60,> 100 µM (inactive)
same,GI50,SW-620,> 100 µM (inactive)
same,GI50,MDA-MB-231,18.3 µM (inactive)
same,GI50,CCRF-CEM,49 µM (inactive)
same,GI50,SNB-19,29.4 µM (inactive)
same,GI50,COLO 205,> 100 µM (inactive)
same,GI50,KM12,> 100 µM (inactive)
same,GI50,TK-10,39.3 µM (inactive)
same,GI50,UACC-257,> 100 µM (inactive)
same,GI50,OVCAR-8,16.2 µM (inactive)
same,GI50,OVCAR-3,36.8 µM (inactive)
same,GI50,K562,46.1 µM (inactive)
same,GI50,OVCAR-5,> 100 µM (inactive)
same,GI50,LOX IMVI,68.4 µM (inactive)
same,GI50,HOP-92,28.8 µM (inactive)
same,GI50,HOP-62,18.2 µM (inactive)
same,GI50,SF-539,33.7 µM (inactive)
same,GI50,SK-OV-3,45.2 µM (inactive)
same,GI50,PC-3,> 100 µM (inactive)
same,GI50,ACHN,26.7 µM (inactive)
same,GI50,T47D,58.6 µM (inactive)
same,GI50,MOLT-4,19.6 µM (inactive)
same,GI50,SF-268,31.9 µM (inactive)
same,GI50,SR,18.8 µM (inactive)
same,GI50,RPMI-8226,58.1 µM (inactive)
same,GI50,M14,40.1 µM (inactive)
same,GI50,MDA-N,> 100 µM (inactive)
same,GI50,OVCAR-4,82 µM (inactive)
same,GI50,CAKI-1,> 100 µM (inactive)
same,GI50,EKVX,> 100 µM (inactive)
Cc1cc(O)cc(O)c1C(=O)O[C@]1(C)C(=O)C=C2C=C(/C=C/C(=O)O)OC=C2C1=O,GI50,NCI-H226,> 100 µM (inactive)
same,GI50,IGROV-1,> 100 µM (inactive)
same,GI50,HT-29,94.4 µM (inactive)
same,GI50,NCI/ADR-RES,> 100 µM (inactive)
same,GI50,SK-MEL-28,> 100 µM (inactive)
same,GI50,NCI-H460,> 100 µM (inactive)
same,GI50,MDA-MB-435,> 100 µM (inactive)
same,GI50,HCC 2998,> 100 µM (inactive)
same,GI50,SN12C,> 100 µM (inactive)
same,GI50,HCT-116,76.9 µM (inactive)
same,GI50,HCT-15,> 100 µM
same,GI50,SK-MEL-5,> 100 µM (inactive)
same,GI50,DU-145,> 100 µM (inactive)
same,GI50,786-0,> 100 µM (inactive)
same,GI50,Hs-578T,> 100 µM (inactive)
same,GI50,SF-295,> 100 µM (inactive)
same,GI50,UO-31,> 100 µM (inactive)
same,GI50,Malme-3M,67.3 µM (inactive)
same,GI50,UACC-62,> 100 µM (inactive)
same,GI50,RXF 393,> 100 µM (inactive)
same,GI50,NCI-H23,> 100 µM (inactive)
same,GI50,MCF7,47.8 µM (inactive)
same,GI50,HL-60,31.9 µM (inactive)
same,GI50,SW-620,58.3 µM (inactive)
same,GI50,MDA-MB-231,> 100 µM (inactive)
same,GI50,CCRF-CEM,38.5 µM (inactive)
same,GI50,SNB-19,> 100 µM (inactive)
same,GI50,COLO 205,> 100 µM (inactive)
same,GI50,KM12,41.7 µM (inactive)
same,GI50,SK-MEL-2,> 100 µM (inactive)
same,GI50,SNB-75,0.76 µM (active)
same,GI50,TK-10,45.6 µM (inactive)
same,GI50,UACC-257,> 100 µM (inactive)
same,GI50,OVCAR-8,> 100 µM (inactive)
same,GI50,OVCAR-3,> 100 µM (inactive)
same,GI50,K562,> 100 µM (inactive)
same,GI50,OVCAR-5,> 100 µM (inactive)
same,GI50,LOX IMVI,37.2 µM (inactive)
same,GI50,HOP-92,31.8 µM (inactive)
same,GI50,A549,> 100 µM (inactive)
same,GI50,HOP-62,> 100 µM (inactive)
same,GI50,SF-539,> 100 µM (inactive)
same,GI50,SK-OV-3,> 100 µM (inactive)
same,GI50,PC-3,> 100 µM (inactive)
same,GI50,ACHN,> 100 µM (inactive)
same,GI50,T47D,> 100 µM (inactive)
same,GI50,MOLT-4,60.8 µM (inactive)
same,GI50,SF-268,> 100 µM (inactive)
same,GI50,SR,42.2 µM (inactive)
same,GI50,RPMI-8226,> 100 µM (inactive)
same,GI50,M14,> 100 µM (inactive)
same,GI50,MDA-N,> 100 µM (inactive)
same,GI50,OVCAR-4,> 100 µM (inactive)
same,GI50,CAKI-1,> 100 µM (inactive)
same,GI50,A498,> 100 µM (inactive)
same,GI50,EKVX,> 100 µM (inactive)
